In assay [1] the test system is TNFα-induced apoptosis, WEHI-13VAR cells. The experiment in a line: TNFα induced apoptosis in WEHI-13VAR cells (MTT). The format is cell-based, murine. Particulars: Mus musculus; for inhibition at 10 µM: 1 × 10^−5M; for inhibition at 20 µM: 2 × 10^−5M; for inhibition at 40 µM: 4 × 10^−5M; for inhibition at 5 µM: 5 × 10^−6M. On the procedure:
Effect of compounds on TNFα-induced apoptosis was measured by a standard biological assay using WEHI-13VAR cells. These cells undergo apoptosis when they are incubated in the presence of TNFα and actinomycin D. 2×10^4 WEHI-13VAR cells were incubated in RPMI supplemented with 1% sodium pyruvate and 10% FBS, overnight at 37° C. for cell adherence. The cells were then cultured in the presence of 1 μg/mL of actinomycin D (to inhibit protein synthesis) and 0.04 nM TNFα with or without compounds at 37° C. After 16-24 h, 50 μL of a solution of 2 mg/mL of MTT was added to each well and the plate was then incubated for 4 h at 37° C. Only viable cells metabolize MTT to form formazan salt, which is detectable by the measurement of absorbance at 570 nm. After the incubation, the plate was inverted to remove medium and dead cells. 150 μL DMSO was added to each well to stop the reaction and solubilize the formazan salt. Optical density was read on a EL 800, universal Microplate reader (Bio-Tek). A decrease in the optical density is direct evidence of cell apoptosis induced by TNFα. Compounds were also compared to the activity of an anti-TNFα neutralizing antibody.

Assay [2] relates to TNFα production, J774A-1 cells. The assay is described as follows: LPS-induced TNFα production in J774A-1 cells (ELISA). Type of assay: cell-based. Particulars: Mus musculus, J774.A1, 24 h, read-out: IC50 (μM), inhibition of TNFα released by LPS induction. On the procedure:
Effect of compounds on TNFα production was measured by ELISA using J774-1 cells stimulated by LPS. J774-1 cells were cultured in the presence or absence of LPS and compound. Cells were cultured at 37° C. for 24 h and thereafter the supernatants were collected for the determination of the concentration of TNFα by ELISA as recommended by the manufacturer (BD Biosciences). Data was analyzed in Microsoft Excel and the concentration of compound which inhibits 50% of TNFα production (IC50) was calculated using Prism software.
(An ELISA detects its analyte on a solid surface through an enzyme-linked reagent.)

The target of assay [3] is T1, Fc portion of human IgG (binding of protein A to human IgG).
T1 construct: fused on or other part: Horseradish peroxidase chemically conjugated to the IgG (HRP-IgG)
The assay is described as follows: Competitive protein A binding ELISA. The following applies: Table 1. On the procedure:
As described above, this assay evaluates the ability of the exemplified compounds to mimic protein A. Such compounds can bind to the Fc portion of human IgG as ascertained by the inhibition of binding of protein A to human IgG. The competitive protein A binding ELISA assay was performed on a 96-well plate Maxisorp surface to enhance the binding of protein A to the bottom of the plate. The wells were coated with 100 μL of protein A (0.8 μg) and incubated overnight at 4° C. After incubation, unbound protein A was removed by three washes with phosphate buffer saline (PBS). The plate was then incubated with 100 μL/well of a 2% solution of bovine serum albumin (BSA) for 1 h at 37° C. to block non specific protein binding. After incubation, the plate was washed to times with PBS. 50 μL of compound or protein A, diluted in PBS or PBS-20% DMSO at appropriate concentration, were added to the wells followed by addition of 50 μL of peroxidase-conjugated human IgG (HRP-IgG). After 1 h incubation at 37° C., the plate was washed free times with PBS to remove unbound HRP-IgG. Bound HRP-IgG was detected by incubation with 100 μL of 2,2′-Azino-di[3-ethylbenzothiazoline sulfonate]diammonium salt crystals (ABTS) solution for 20 min in the dark at room temperature. The plate was then read at 405 nm on a EL 800, universal Microplate reader (Bio-Tek). Data was analyzed in Microsoft Excel and the concentration of compound which inhibits 50% binding of protein A (IC50) was calculated using Prism software.
Table 1 represents the IC50 of compounds tested in the competitive protein A binding ELISA assay, which consists of a side-by-side analysis in PBS and PBS-20% DMSO. DMSO was used to increase the solubility of some of the compounds.

The mark [4] stands for this setting: PBS-20% DMSO, read-out: IC50 (μM): Assay in PBS-20% DMSO.
Setting [5] is: PBS, read-out: IC50 (μM): Assay in PBS.

The structures appear in SMILES notation. Like-named read-outs stand apart in the source and are kept apart here.

As for `COC(=O)c1ccccc1Nc1nc(NCCNc2nc(NCCc3ccc(O)cc3)nc(Nc3ccccc3C(=O)OC)n2)nc(NCCc2ccc(O)cc2)n1` [Compound 2], in assay [1], the inhibition (usually the change of the read-out against control, counted positive when it falls) at 10 µM was 43.7%; the inhibition at 20 µM was 48.4%; the inhibition at 40 µM came out at 48.3%; the inhibition at 5 µM stood at 37.3%.

For the compound `COC(=O)c1ccccc1Nc1nc(NCCNc2nc(N)nc(NCCc3ccc(O)cc3)n2)nc(NCCc2ccc(O)cc2)n1` [Compound 3], in assay [1], the inhibition at 10 µM amounted to 32.7%, the inhibition at 20 µM came to 44.6%, the inhibition at 40 µM is 33.9% and the inhibition at 5 µM came to 0.5%. For the same compound, the IC50 (usually the midpoint of a concentration-inhibition curve) in assay [2] turned out to be 28 µM.

On to `Oc1ccc(CCNc2nc(NCCNc3nc(NCCc4ccc(O)cc4)nc(Sc4ccccc4)n3)nc(Sc3ccccc3)n2)cc1` [Compound 11b], for which the IC50 in assay [2] was 23.3 µM; in assay [3] (setting [4]), 45 µM.

In the case of `NCCNc1nc(NCCc2ccc(Oc3nc(NCCc4ccc(O)cc4)nc(Nc4ccccc4)n3)cc2)nc(Nc2ccccc2)n1` [Compound 13], the IC50 in assay [2] is 13.4 µM; in assay [3] (setting [4]) it was 70 µM; in assay [3] (setting [5]) it was 33 µM.

For `CC(=O)NCCNc1nc(NCCc2ccc(Nc3nc(NCCc4ccc(O)cc4)nc(Nc4ccccc4)n3)cc2)nc(Nc2ccccc2)n1` [Compound 15], the IC50 in assay [2] worked out at 14.2 µM; in assay [3] (setting [4]) it was 35 µM.

With `NCCCCNc1nc(NCCc2ccc(Nc3nc(NCCc4ccc(O)cc4)nc(Nc4ccccc4)n3)cc2)nc(Nc2ccccc2)n1` [Compound 16], the IC50 was 13.6 µM in assay [2], 55 µM in assay [3] (setting [4]) and 36 µM in assay [3] (setting [5]).

Take `Nc1ccc(CCNc2nc(Nc3ccccc3)nc(Nc3ccc(CCNc4nc(NCCO)nc(Nc5ccccc5)n4)cc3)n2)cc1` [Compound 17]: the values for the IC50 in assay [2], in assay [3] (setting [4]) and in assay [3] (setting [5]) were 57.1 µM, 12 µM and 53 µM, respectively.

As for `Oc1ccc(CCNc2nc(NCCc3ccc(Nc4nc(Nc5ccccc5)nc(N5CCNCC5)n4)cc3)nc(Nc3ccccc3)n2)cc1` [Compound 18], the figures for the IC50 in assay [2], in assay [3] (setting [4]) and in assay [3] (setting [5]) were 10.2 µM, 43 µM and 26 µM, respectively.

Take `OCCNc1nc(NCCc2ccc(Oc3nc(NCCc4ccc(O)cc4)nc(Nc4ccccc4)n3)cc2)nc(Nc2ccccc2)n1` [Compound 21]: the IC50 in assay [2] amounted to 4.8 µM.

Consider `COc1ccccc1Nc1nc(NCCN)nc(NCCc2ccc(Nc3nc(NCCc4ccc(O)cc4)nc(Nc4ccccc4)n3)cc2)n1` [Compound 22], for which, in assay [2], the IC50 was 62.1 µM.

Take `COc1ccccc1Nc1nc(NCCCCN)nc(NCCc2ccc(Oc3nc(NCCc4ccc(O)cc4)nc(Nc4ccccc4)n3)cc2)n1` [Compound 23]: the IC50 in assay [2] stood at 16.5 µM.

Turning to `NCCCNc1nc(NCCc2ccc(Nc3nc(NCCc4ccc(O)cc4)nc(Nc4ccccc4)n3)cc2)nc(Nc2ccccc2)n1` [Compound 24], the concentration for half-maximal inhibition (IC50) in assay [2] amounted to 11.5 µM.

Consider `OCCNc1nc(NCC2CCN(c3nc(NCCO)nc(Nc4ccccc4)n3)CC2)nc(Nc2ccccc2)n1` [Compound 26], for which, in assay [1], the inhibition at 10 µM was 27.3%, the inhibition at 20 µM is 38%, the inhibition at 40 µM was -11.5% and the inhibition at 5 µM came to 9.7%.

`Oc1ccc(CCNc2nc(Nc3ccccc3)nc(Nc3ccc(Nc4nc(NCCc5ccc(O)cc5)nc(Nc5ccccc5)n4)cc3)n2)cc1` [Compound 28]: the IC50 in assay [2] came out at 28.8 µM; in assay [3] (setting [4]), 35 µM.

Regarding `Nc1ccc(CCNc2nc(Nc3ccccc3)nc(N3CCN(c4nc(NCCO)nc(Nc5ccccc5)n4)CC3)n2)cc1` [Compound 33], the IC50 in assay [2] came out at 20.6 µM; in assay [3] (setting [4]) it was 18 µM; in assay [3] (setting [5]), 18 µM.

Turning to `Oc1ccc(CCNc2nc(Nc3ccccc3)nc(Nc3cccc(Nc4nc(NCCc5ccc(O)cc5)nc(Nc5ccccc5)n4)c3)n2)cc1` [Compound 38], in assay [2], the IC50 is 9.5 µM.

Consider `NCCNc1nc(NCc2cccc(CNc3nc(NCCc4ccc(O)cc4)nc(Nc4ccccc4)n3)c2)nc(Nc2ccccc2)n1` [Compound 40], for which the IC50 in assay [2] was 87.2 µM.

Consider `Nc1cccc(Nc2nc(NCCO)nc(Nc3ccc(CNc4nc(Nc5cccc(N)c5)nc(Nc5cccc(N)c5)n4)cc3)n2)c1` [Compound 42], for which, in assay [1], the inhibition at 10 µM was -1.7%, the inhibition at 20 µM worked out at 0.5%, the inhibition at 40 µM stood at 30.4% and the inhibition at 5 µM is -3.1%. Further, the IC50 in assay [3] (setting [4]) turned out to be 0.05 µM. For the same compound, in assay [3] (setting [5]), the IC50 came to 0.05 µM.

As to `Nc1cccc(CNc2nc(Nc3ccc(CNc4nc(N)nc(Nc5cccc(N)c5)n4)cc3)nc(Nc3cccc(N)c3)n2)c1` [Compound 45], in assay [1], the inhibition at 10 µM amounted to 2.9%, the inhibition at 20 µM is 4.1%, the inhibition at 40 µM turned out to be 32.9% and the inhibition at 5 µM was -0.3%. For the same compound, the IC50 in assay [3] (setting [4]) was 0.08 µM. In assay [3] (setting [5]), the 50% inhibitory concentration (IC50) was determined as 0.1 µM.

Take `Nc1ccc(CNc2nc(NCc3ccc(CNc4nc(NCc5ccc(N)cc5)nc(Nc5cccc(N)c5)n4)cc3)nc(Nc3cccc(N)c3)n2)cc1` [Compound 48]: the results for the IC50 in assay [3] (setting [4]) and in assay [3] (setting [5]) were 0.05 µM and 0.2 µM, respectively.

`Nc1cccc(Nc2nc(NCCO)nc(Nc3cccc(Nc4nc(NCCO)nc(Nc5cccc(N)c5)n4)c3)n2)c1` [Compound 49]: the IC50 in assay [3] (setting [4]) was determined as 0.5 µM; in assay [3] (setting [5]), 0.3 µM.

Regarding `Nc1cccc(Nc2nc(Nc3cccc(Nc4nc(Nc5cccc(N)c5)nc(NC(CO)CO)n4)c3)nc(NC(CO)CO)n2)c1` [Compound 50], the results for the IC50 in assay [3] (setting [4]) and in assay [3] (setting [5]) were 1 µM and 0.4 µM, respectively.

Regarding `Nc1cccc(Nc2nc(N)nc(Nc3cccc(Nc4nc(N)nc(Nc5cccc(N)c5)n4)c3)n2)c1` [Compound 51], the IC50 is 6 µM in assay [3] (setting [4]) and 0.6 µM in assay [3] (setting [5]).

The values above are taken from US7683061B2, “Triazine dimers for the treatment of autoimmune diseases” (ProMetic BioSciences Inc., priority 2003, dated 2010).
